One compound from patent US9328122B2, “7-substituted Hanfangichin B derivative, and preparation method and use thereof” (HANGZHOU BENSHENG PHARMACEUTICAL CO., LTD., priority 2012, dated 2016) can be followed below.

Values after ≈ are worked out from the molar mass of the structure shown.

The subject of one assay is PANC-1 (pancreatic cancer) cells. The assay can be described thus: MTT cell growth inhibition, solid tumor cells. The format is cell-based, human. The settings on record: Homo sapiens; PANC-1, 72 h, MTT; read-out: IC90. From the text:
(§1) Hep-2 (laryngeal carcinoma), A549 (human lung cancer), CaES-17 (esophageal cancer cell), PC-3 (prostate cancer), CNE (nasopharyngeal carcinoma cell) and SK-OV-3 (ovarian cancer cell), all of which were purchased from China Center For Type Culture Collection; RKO (human colon adenocarcinoma cell), MGC-803 (human gastric cancer cell), MG-63 (osteosarcoma), and U87-MG (malignant glioma cell), all of which were purchased from Fuxiang Bio-tech Co. Ltd., Shanghai, China; PANC-1 (pancreatic cancer), Becap37 (human breast cancer cell), Hela (human cervical cancer cell) and Hep G2 (human liver cancer cell), all of which were donated by Cancer Research Institute of Zhejiang University, China.
(§2) 6000 well-growing human solid tumor cells were obtained and inoculated into wells of a 96-well cell culture plate. The culture medium was DMEM High Glucose cell culture medium containing 10% fetal bovine serum. The plate was placed in a carbon dioxide cell incubator (5% CO2) at 37° C. and incubated for 24 hours. After added with 7-substituted fangchinoline derivatives of different concentration and mixing uniformly, the plate was placed in a carbon dioxide cell incubator (5% CO2) at 37° C. and incubated for 72 hours. Then the viable cell concentration was determined by the MTT method.
By IC90 is commonly meant the point of the concentration-response curve where the effect stands at 90%. Consider `C=CCOc1c(OC)cc2c3c1Oc1cc4c(cc1OC)CCN(C)[C@H]4Cc1ccc(cc1)Oc1cc(ccc1OC)C[C@@H]3N(C)CC2` [BS-FC-213], for which the IC90 was determined as 10.4 µg/mL (≈ 16 µM).

For another assay, the system named is PC-3 (prostate cancer) cells. The assay can be described thus: MTT cell growth inhibition, solid tumor cells. The format is cell-based, human. The conditions noted are these: Homo sapiens; PC-3, 72 h, MTT; read-out: IC50.
Text: as §1, §2
The term IC50 denotes the concentration at which inhibition is half-maximal. Consider `C=CCOc1c(OC)cc2c3c1Oc1cc4c(cc1OC)CCN(C)[C@H]4Cc1ccc(cc1)Oc1cc(ccc1OC)C[C@@H]3N(C)CC2` [BS-FC-213], for which the IC50 stood at 3.24 µg/mL (≈ 4.99 µM).

Still in this assay, the particulars now being: Homo sapiens; PC-3, 72 h, MTT; read-out: IC90.
With `C=CCOc1c(OC)cc2c3c1Oc1cc4c(cc1OC)CCN(C)[C@H]4Cc1ccc(cc1)Oc1cc(ccc1OC)C[C@@H]3N(C)CC2` [BS-FC-213], the IC90 came to 7.37 µg/mL (≈ 11.4 µM).

The next assay has as its system SK-OV-3 (ovarian cancer) cells. In words: MTT cell growth inhibition, solid tumor cells. It counts as cell-based, human. The conditions noted are these: Homo sapiens; SK-OV-3, 72 h, MTT; read-out: IC50.
Text: as §1, §2
Turning to `C=CCOc1c(OC)cc2c3c1Oc1cc4c(cc1OC)CCN(C)[C@H]4Cc1ccc(cc1)Oc1cc(ccc1OC)C[C@@H]3N(C)CC2` [BS-FC-213], the IC50 worked out at 5 µg/mL (≈ 7.71 µM).

Still in this assay, the particulars now being: Homo sapiens; SK-OV-3, 72 h, MTT; read-out: IC90.
Consider `C=CCOc1c(OC)cc2c3c1Oc1cc4c(cc1OC)CCN(C)[C@H]4Cc1ccc(cc1)Oc1cc(ccc1OC)C[C@@H]3N(C)CC2` [BS-FC-213], for which the IC90 was 11.8 µg/mL (≈ 18.2 µM).

A further assay has as its system Becap-37 (human breast cancer) cells. The assay can be described thus: MTT cell growth inhibition, solid tumor cells. The format is cell-based. The settings on record: Homo sapiens; Becap-37, 72 h, MTT; read-out: IC50.
Text: as §1, §2
Take `C=CCOc1c(OC)cc2c3c1Oc1cc4c(cc1OC)CCN(C)[C@H]4Cc1ccc(cc1)Oc1cc(ccc1OC)C[C@@H]3N(C)CC2` [BS-FC-213]: the IC50 is 2.54 µg/mL (≈ 3.91 µM).

Staying with this assay, now noted: Homo sapiens; Becap-37, 72 h, MTT; read-out: IC90.
For `C=CCOc1c(OC)cc2c3c1Oc1cc4c(cc1OC)CCN(C)[C@H]4Cc1ccc(cc1)Oc1cc(ccc1OC)C[C@@H]3N(C)CC2` [BS-FC-213], the IC90 was 5.29 µg/mL (≈ 8.15 µM).

The subject of the next assay is Hela (human cervical cancer) cells. In words: MTT cell growth inhibition, solid tumor cells. The format is cell-based. The conditions noted are these: Homo sapiens; Hela, 72 h, MTT; read-out: IC50.
Text: as §1, §2
For the compound `C=CCOc1c(OC)cc2c3c1Oc1cc4c(cc1OC)CCN(C)[C@H]4Cc1ccc(cc1)Oc1cc(ccc1OC)C[C@@H]3N(C)CC2` [BS-FC-213], the IC50 turned out to be 1.68 µg/mL (≈ 2.59 µM).

Still in this assay, the particulars now being: Homo sapiens; Hela, 72 h, MTT; read-out: IC90.
For the compound `C=CCOc1c(OC)cc2c3c1Oc1cc4c(cc1OC)CCN(C)[C@H]4Cc1ccc(cc1)Oc1cc(ccc1OC)C[C@@H]3N(C)CC2` [BS-FC-213], the IC90 came to 3.89 µg/mL (≈ 6 µM).

Another assay concerns Hep G2 (human liver cancer) cells. The assay can be described thus: MTT cell growth inhibition, solid tumor cells. The format is cell-based. The conditions noted are these: Homo sapiens, HepG2; Hep G2, 72 h, MTT; read-out: IC50.
Text: as §1, §2
In the case of `C=CCOc1c(OC)cc2c3c1Oc1cc4c(cc1OC)CCN(C)[C@H]4Cc1ccc(cc1)Oc1cc(ccc1OC)C[C@@H]3N(C)CC2` [BS-FC-213], the IC50 was found to be 2.12 µg/mL (≈ 3.27 µM).

The assay is the same for the next values; noted with them: Homo sapiens, HepG2; Hep G2, 72 h, MTT; read-out: IC90.
On to `C=CCOc1c(OC)cc2c3c1Oc1cc4c(cc1OC)CCN(C)[C@H]4Cc1ccc(cc1)Oc1cc(ccc1OC)C[C@@H]3N(C)CC2` [BS-FC-213], for which the IC90 is 5.92 µg/mL (≈ 9.12 µM).

The test system of another assay is MG-63 (osteosarcoma) cells. The assay can be described thus: MTT cell growth inhibition, solid tumor cells. The settings on record: Homo sapiens; MG-63, 72 h, MTT; read-out: IC50. It counts as cell-based.
Text: as §1, §2
For the compound `C=CCOc1c(OC)cc2c3c1Oc1cc4c(cc1OC)CCN(C)[C@H]4Cc1ccc(cc1)Oc1cc(ccc1OC)C[C@@H]3N(C)CC2` [BS-FC-213], the IC50 was 2.4 µg/mL (≈ 3.7 µM).

The same assay, now with this note: Homo sapiens; MG-63, 72 h, MTT; read-out: IC90.
Consider `C=CCOc1c(OC)cc2c3c1Oc1cc4c(cc1OC)CCN(C)[C@H]4Cc1ccc(cc1)Oc1cc(ccc1OC)C[C@@H]3N(C)CC2` [BS-FC-213], for which the IC90 turned out to be 3.8 µg/mL (≈ 5.86 µM).

For another assay, the system named is RKO (human colon adenocarcinoma) cells. In words: MTT cell growth inhibition, solid tumor cells. The format is cell-based. The conditions noted are these: Homo sapiens; RKO, 72 h, MTT; read-out: IC50.
Text: as §1, §2
Take `C=CCOc1c(OC)cc2c3c1Oc1cc4c(cc1OC)CCN(C)[C@H]4Cc1ccc(cc1)Oc1cc(ccc1OC)C[C@@H]3N(C)CC2` [BS-FC-213]: the IC50 came to 1.58 µg/mL (≈ 2.44 µM).

The assay is the same for the next values; noted with them: Homo sapiens; RKO, 72 h, MTT; read-out: IC90.
On to `C=CCOc1c(OC)cc2c3c1Oc1cc4c(cc1OC)CCN(C)[C@H]4Cc1ccc(cc1)Oc1cc(ccc1OC)C[C@@H]3N(C)CC2` [BS-FC-213], for which the IC90 was 3.46 µg/mL (≈ 5.33 µM).

The next assay relates to U87-MG (malignant glioma) cells. In words: MTT cell growth inhibition, solid tumor cells. The format is cell-based. The conditions noted are these: Homo sapiens, U-87 MG; U87-MG, 72 h, MTT; read-out: IC50.
Text: as §1, §2
As for `C=CCOc1c(OC)cc2c3c1Oc1cc4c(cc1OC)CCN(C)[C@H]4Cc1ccc(cc1)Oc1cc(ccc1OC)C[C@@H]3N(C)CC2` [BS-FC-213], the IC50 came out at 1.85 µg/mL (≈ 2.85 µM).

The same assay, now with this note: Homo sapiens, U-87 MG; U87-MG, 72 h, MTT; read-out: IC90.
For the compound `C=CCOc1c(OC)cc2c3c1Oc1cc4c(cc1OC)CCN(C)[C@H]4Cc1ccc(cc1)Oc1cc(ccc1OC)C[C@@H]3N(C)CC2` [BS-FC-213], the IC90 worked out at 9.23 µg/mL (≈ 14.2 µM).

In a further assay the test system is tumor. In words: Antitumor activity compared with fangchinoline, overall statement. It counts as cell-based. The settings on record: tumor type not specified.
As for `C=CCOc1c(OC)cc2c3c1Oc1cc4c(cc1OC)CCN(C)[C@H]4Cc1ccc(cc1)Oc1cc(ccc1OC)C[C@@H]3N(C)CC2` [BS-FC-213], the “antitumor activity compared with that of fangchinoline” value is “significantly superior”.
